From the supplement of paper PMC11061612 come the findings set out here.

Experiment [1] deals with LNCaP-Clone-FGC (Prostate Carcinoma). As to the kind of experiment: Bliss excess, mean over the matrix (fraction); higher = more synergy. The essentials: (§1)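 Bliss excess equals the observed combination effect minus the expected value EA + EB − EA·EB, where EA and EB are the effects of each agent alone. Combination Emax is the second-highest inhibition within the matrix. Inhibition was scaled from CellTiter-Glo 2.0 luminescence, with 0 set by vehicle wells and 1 by blank wells, after 72 hours of two-drug dosing of cells plated in 1536-well plates.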

Experiment [2] has as its system SK-ES-1 (Ewing's Sarcoma). The experiment is described as above. The essentials: as §1
A further experiment has as its system ES4 (Ewing's Sarcoma). Described as above. Summed up: as §1
A further experiment deals with AGS (Gastric Carcinoma). Described as above. The essentials:
as §1

Experiment [3] has as its system Calu-3 (Lung Adenocarcinoma). The description is as above. The essentials: as §1
Experiment [4] concerns B-CPAP (Thyroid Gland Carcinoma). The experiment is described as above. The essentials: as §1
For experiment [5], the system named is ME-1 (Acute Myeloid Leukemia). Described as above. Summed up: as §1
Experiment [6] relates to NCI-H2085 (Non-Small Cell Lung Carcinoma). The experiment is described as above. Summed up: as §1
Experiment [7] deals with DoTc2-4510 (Cervical Carcinoma). The experiment is described as above. The essentials:
as §1

The test system of experiment [8] is CAL-148 (Breast Carcinoma). Described as above. The essentials:
as §1

For experiment [9], the system named is HT-1376 (Bladder Carcinoma). Described as above. Summed up:
as §1

Experiment [10] relates to LU-135 (Small Cell Lung Carcinoma). Described as above. The essentials:
as §1

The test system of experiment [11] is KURAMOCHI (Ovarian Carcinoma). The description is as above. Summed up: as §1
Experiment [12] deals with HCC1806 (Breast Carcinoma). The description is as above. The essentials:
as §1

Experiment [13] relates to Hs-578-T (Breast Carcinoma). The experiment can be described thus: combination Emax (second highest fraction inhibited in the dose matrix, 72 h); higher = more inhibition; extreme values may be limits of the assay. Summed up: as §1
Experiment [14] deals with TE-15 (Esophageal Squamous Cell Carcinoma). The experiment is described as above. The essentials: as §1
The test system of experiment [15] is EC-GI-10 (Esophageal Squamous Cell Carcinoma). The experiment is described as above. Summed up:
as §1

Experiment [16] relates to KP-1N (Pancreatic Carcinoma). The experiment is described as above. The essentials:
as §1

Another experiment has as its system 42-MG-BA (Glioblastoma). The description is as above. The essentials:
as §1

In another experiment the test system is T98G (Glioblastoma). Described as above. The essentials:
as §1

As to `NC1(C(=O)N[C@@H](CCO)c2ccc(Cl)cc2)CCN(c2ncnc3[nH]ccc23)CC1` [Capivasertib] + CC(=O)c1c(C)c2cnc(Nc3ccc(N4CCNCC4)cn3)nc2n(C2CCCC2)c1=O [Palbociclib] (first compound max 10 µM, 7x7, partner max 10 µM), the Bliss excess in experiment [1] is 0.0242; in [2] it was 0.0865; in the experiment with ES4 (Ewing's Sarcoma) it was 0.074; with AGS (Gastric Carcinoma) it was 0.0794; in experiment [3], 0.0775; in [4], -0.046. Besides, the Bliss excess in experiment [5] is -0.11; in [6], -0.0561; in [7], -0.0983; in experiment [8], -0.0215; in experiment [9], -0.0388; in experiment [10], -0.0357. Also, the Bliss excess in [11] was -0.0124; in [12] it was 0.0075. In addition, the “combination Emax” value amounted to 0.676 in experiment [13]; 0.568 in [14]; 0.665 in experiment [15]; 0.451 in experiment [16]; 0.639 in the experiment on 42-MG-BA (Glioblastoma); 0.6 in the experiment on T98G (Glioblastoma).
Regarding `NC1(C(=O)N[C@@H](CCO)c2ccc(Cl)cc2)CCN(c2ncnc3[nH]ccc23)CC1` [Capivasertib] + COc1nnc2ccc(N3CCC(c4ccc(OCCN5CCN(C)C(=O)[C@H]5C)cc4)CC3)nn12 [AZD5153] (first compound max 10 µM, 7x7, partner max 1 µM), the Bliss excess was -0.0071 in experiment [1]; 0.0815 in experiment [2]; -0.0175 in the experiment on ES4 (Ewing's Sarcoma); 0.0228 with AGS (Gastric Carcinoma); 0.0283 in experiment [3]; 0.062 in experiment [4]. Besides, the Bliss excess in experiment [5] is -0.0161; in experiment [6] it was 0.044; in experiment [7], -0.0084; in experiment [8] it was 0.0504; in experiment [9], -0.0317; in experiment [10] it was -0.005. Besides, the values for the Bliss excess in experiment [11] and in experiment [12] were -0.0158 and -0.003, respectively. The “combination Emax” value worked out at 0.887 in experiment [13]; 0.693 in [14]; 0.543 in [15]; 0.621 in experiment [16]; 0.813 with 42-MG-BA (Glioblastoma); 0.699 with T98G (Glioblastoma).
In the case of `CS(=O)(=O)CCNCc1ccc(-c2ccc3ncnc(Nc4ccc(OCc5cccc(F)c5)c(Cl)c4)c3c2)o1` [Lapatinib] + NC1(c2ccc(-c3nc4ccn5c(=O)[nH]nc5c4cc3-c3ccccc3)cc2)CCC1 [MK-2206] (first compound max 10 µM, 7x7, partner max 10 µM), the Bliss excess in experiment [3] is 0.0123; in experiment [4], 0.0102; in [5], -0.0069; in experiment [6], 0.0463; in [7], 0.0089; in experiment [8], 0.0253. Further, the Bliss excess in experiment [9] was -0.0333; in [11], 0.0264; in experiment [12], 0.0574. The “combination Emax” value in experiment [13] was found to be 0.936; in [14], 0.831; in the experiment with T98G (Glioblastoma), 0.908.
`Cc1c2c(nn1C)CSCc1cc(n(C)n1)CSc1cc(c3ccccc3c1)OCCCc1c(C(=O)O)n(C)c3c-2c(Cl)ccc13` [AZD5991] + Cc1cc2ncnn2cc1Nc1ncc2c(n1)n(C1CCOCC1)c(=O)n2C [AZD7648] (first compound max 1 µM, 7x7, partner max 10 µM): the Bliss excess in experiment [1] was -0.0423; in experiment [2] it was 0.0001; in the experiment on ES4 (Ewing's Sarcoma), -0.0593; in the experiment on AGS (Gastric Carcinoma), -0.037; in experiment [3] it was -0.0115; in experiment [4] it was -0.0155. The Bliss excess in experiment [5] was 0.013; in experiment [6], -0.0493; in [8], -0.0121; in experiment [9], -0.0218; in [10], -0.0237; in [11], -0.0228. Also, in experiment [12], the Bliss excess was -0.0203. Further, the “combination Emax” value amounted to 0.63 in experiment [13]; 0.235 in experiment [14]; 0.564 in experiment [15]; 0.279 in experiment [16]; 0.988 in the experiment with 42-MG-BA (Glioblastoma); 0.361 with T98G (Glioblastoma).
With `CCc1c2c(nc3ccc(O)cc13)-c1cc3c(c(=O)n1C2)COC(=O)[C@]3(O)CC` [SN-38] + O=C(c1cc(Cc2n[nH]c(=O)c3ccccc23)ccc1F)N1CCN(C(=O)C2CC2)CC1 [Olaparib] (first compound max 0.3 µM, 7x7, partner max 10 µM), the Bliss excess in experiment [2] is 0.0611; with ES4 (Ewing's Sarcoma), -0.0648; with AGS (Gastric Carcinoma), 0.0897; in experiment [3], 0.0909; in [4], 0.0148; in experiment [5], 0.0041. Further, the Bliss excess in [6] is -0.0181; in [7], 0.0174; in experiment [8] it was 0.0981; in experiment [9], -0.0464; in experiment [10] it was 0.0545; in [11], -0.0232. Further, the Bliss excess in [12] stood at 0.0498. Also, the “combination Emax” value came to 0.709 in [13]; 0.811 in [14]; 0.645 in experiment [16]; 1 in the experiment with 42-MG-BA (Glioblastoma); 0.632 in the experiment with T98G (Glioblastoma).
Turning to `C[C@@H](c1ccc2nccn2c1)n1nnc2ncc(-c3cnn(C)c3)nc21` [Savolitinib] + CN(CC[C@H](CSC1=CC=CC=C1)NC2=C(C=C(C=C2)S(=O)(=O)NC(=O)C3=CC=C(C=C3)N4CCC(CC4)[C@H](C5=CC=CC=C5C6=CC=C(C=C6)Cl)O)S(=O)(=O)C(F)(F)F)CCO [AZD4320] (first compound max 1 µM, 7x7, partner max 1 µM), the Bliss excess in experiment [1] is -0.0205; in [2], -0.0692; in the experiment with ES4 (Ewing's Sarcoma), -0.0622; in the experiment on AGS (Gastric Carcinoma), -0.0353; in experiment [4], 0.0041; in experiment [10], 0.0057. In addition, the Bliss excess in experiment [12] is -0.0031. Also, the “combination Emax” value was 0.27 in experiment [15], 0.175 in experiment [16] and 0.222 in the experiment on 42-MG-BA (Glioblastoma).
In the case of `COc1nnc2ccc(N3CCC(c4ccc(OCCN5CCN(C)C(=O)[C@H]5C)cc4)CC3)nn12` [AZD5153] + CN(CC[C@H](CSC1=CC=CC=C1)NC2=C(C=C(C=C2)S(=O)(=O)NC(=O)C3=CC=C(C=C3)N4CCC(CC4)[C@H](C5=CC=CC=C5C6=CC=C(C=C6)Cl)O)S(=O)(=O)C(F)(F)F)CCO [AZD4320] (first compound max 1 µM, 7x7, partner max 1 µM), the Bliss excess in experiment [1] is 0.0557; in experiment [2] it was 0.0211; with ES4 (Ewing's Sarcoma) it was -0.0136; in the experiment with AGS (Gastric Carcinoma), -0.03; in experiment [4], 0.0375; in [10], 0.0221. The Bliss excess in experiment [12] amounted to 0.0257. Besides, the “combination Emax” value in experiment [15] came to 0.275; in experiment [16], 0.53; in the experiment with 42-MG-BA (Glioblastoma), 0.868.
